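Step 1: Grow cells in 96-well plates. Step 2: Expose to compound for 48 hours at 5 concentrations. Step 3: Interpolate endpoints linearly; if unreached, use highest concentration. At the GI50, growth is halved.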 Calls of active or inactive are those of the source. Cut-off read from the data, not from the text of the source: active = GI50 up to about 1.1 µM and inactive = higher.
Key:
Experiment in all cases: inhibition of tumour cell growth, NCI panel, 48 h
A498 = system: A498
HCC 2998 = system: HCC 2998
HCT-116 = system: HCT-116
HCT-15 = system: HCT-15
HL-60 = system: HL-60
HT-29 = system: HT-29
Hs-578T = system: Hs-578T
KM12 = system: KM12
M14 = system: M14
NCI-H226 = system: NCI-H226
NCI-H23 = system: NCI-H23
NCI-H522 = system: NCI-H522
OVCAR-5 = system: OVCAR-5
RXF 393 = system: RXF 393
SF-295 = system: SF-295
T47D = system: T47D
U-251 = system: U-251
UACC-62 = system: UACC-62
CCRF-CEM = system: CCRF-CEM
IGROV-1 = system: IGROV-1

Compound | GI50 (A498) | GI50 (HCC 2998) | GI50 (HCT-116) | GI50 (HCT-15) [µM] | GI50 (HL-60) | GI50 (HT-29) | GI50 (Hs-578T) | GI50 (KM12) | GI50 (M14) | GI50 (NCI-H226) | GI50 (NCI-H23) | GI50 (NCI-H522) | GI50 (OVCAR-5) | GI50 (RXF 393) | GI50 (SF-295) | GI50 (T47D) | GI50 (U-251) | GI50 (UACC-62) | GI50 (CCRF-CEM) | GI50 (IGROV-1)
CC(=N/NC(=S)Nc1c(C)n(C)n(-c2ccccc2)c1=O)/C(C)=N\NC(=S)Nc1c(C)n(C)n(-c2ccccc2)c1=O | > 100 µM (inactive) | > 100 µM (inactive) | > 100 µM (inactive) | > 100 | > 100 µM (inactive) | > 100 µM (inactive) | > 100 µM (inactive) | > 100 µM (inactive) | > 100 µM (inactive) | > 100 µM (inactive) | > 100 µM (inactive) | > 100 µM (inactive) | > 100 µM (inactive) | > 100 µM (inactive) | > 100 µM (inactive) | > 100 µM (inactive) | > 100 µM (inactive) | > 100 µM (inactive) | – | –
CC1=Nc2nc(Cl)cn2C(=O)C1(Cl)Cl | > 10 µM (inactive) | > 10 µM (inactive) | > 10 µM (inactive) | > 10 | > 10 µM (inactive) | > 10 µM (inactive) | > 10 µM (inactive) | > 10 µM (inactive) | > 10 µM (inactive) | > 10 µM (inactive) | > 10 µM (inactive) | > 10 µM (inactive) | > 10 µM (inactive) | > 10 µM (inactive) | > 10 µM (inactive) | > 10 µM (inactive) | > 10 µM (inactive) | > 10 µM (inactive) | > 10 µM (inactive) | > 10 µM (inactive)
CN(C)/N=C(/CC(O)(C(F)(F)F)C(F)(F)F)c1ccc([N+](=O)[O-])cc1 | > 100 µM (inactive) | > 100 µM (inactive) | > 100 µM (inactive) | > 100 | > 100 µM (inactive) | > 100 µM (inactive) | > 100 µM (inactive) | > 100 µM (inactive) | > 100 µM (inactive) | > 100 µM (inactive) | > 100 µM (inactive) | > 100 µM (inactive) | > 100 µM (inactive) | > 100 µM (inactive) | > 100 µM (inactive) | > 100 µM (inactive) | > 100 µM (inactive) | > 100 µM (inactive) | > 100 µM (inactive) | 80.5 µM (inactive)
CC[N+]1(C)CCC(O)(c2ccccc2)C(C(=O)c2ccccc2)C1 (stereo not drawn) | 16.1 µM (inactive) | 34 µM (inactive) | 13.6 µM (inactive) | 9.73 | 4.27 µM (inactive) | 12.5 µM (inactive) | 24 µM (inactive) | 19.2 µM (inactive) | 9.71 µM (inactive) | 18.6 µM (inactive) | 20.8 µM (inactive) | 1.75 µM (inactive) | 17.9 µM (inactive) | 12.4 µM (inactive) | 19 µM (inactive) | 16.9 µM (inactive) | 20.6 µM (inactive) | 19 µM (inactive) | 2.04 µM (inactive) | 19.8 µM (inactive)
COc1ccc(C2=NN(C(=O)c3ccc(Cl)cc3)C(O)(c3cc(F)c(Cl)cc3Cl)C2)cc1 (stereo not drawn) | 71.6 µM (inactive) | 43.5 µM (inactive) | 23.4 µM (inactive) | 28.1 | 51.5 µM (inactive) | 17.3 µM (inactive) | > 100 µM (inactive) | 24.5 µM (inactive) | 44.8 µM (inactive) | > 100 µM (inactive) | 37.6 µM (inactive) | > 100 µM (inactive) | > 100 µM (inactive) | > 100 µM (inactive) | > 100 µM (inactive) | 57.7 µM (inactive) | > 100 µM (inactive) | > 100 µM (inactive) | 50.2 µM (inactive) | > 100 µM (inactive)
CCOC(=O)C1(C(C)=O)OC(=O)c2cnccc21 (stereo not drawn) | > 100 µM (inactive) | > 100 µM (inactive) | > 100 µM (inactive) | > 100 | > 100 µM (inactive) | > 100 µM (inactive) | > 100 µM (inactive) | > 100 µM (inactive) | > 100 µM (inactive) | > 100 µM (inactive) | > 100 µM (inactive) | > 100 µM (inactive) | > 100 µM (inactive) | > 100 µM (inactive) | > 100 µM (inactive) | > 100 µM (inactive) | > 100 µM (inactive) | > 100 µM (inactive) | > 100 µM (inactive) | > 100 µM (inactive)

From ChEMBL document CHEMBL1201862, “PubChem BioAssay data set” (2004)
